{
  "source": "patent US20070213280A1",
  "about": "“Steroidal Saponins Compound, the Process for Producing the Same and the Use Thereof” (GUILIN INNOVATIVE MEDICINES INVESTMENT LTD., CO., priority 2004, published 2007)",
  "key": {"[1]": {"tested_on": "acute miocardial infarction caused by ligation of coronary artery", "assay": "Acute miocardial infarction by coronary artery ligation in canines (Example 3)", "assay_type": "in vivo, Adult hybrid canines", "conditions": "canine; for Infarction size/heart size (%) / Infarction size/ventricles size (%): n=2", "procedure": "(§1) Methods: Applying the model of acute miocardial infarction caused by ligation of coronary artery, detecting miocardial infarction scope, coronary arterial flow and myocardial consumption of oxygen to observe the curative effect of MPD injection.\nCanine was anaesthetized by 3% Pentobarbital Sodium (1 mL/kg), opening the chest, exposing the heart and making up a arcula cordis bed; leading on an epicardial electrode and then ligating the root of the left anterior descending of coronary artery (LADCA). Venous cannula on thigh was administered to inject drug, arterial cannula on cervical and pipe from external jugular vein to vena coronaria sinus were administered, thus the blood was obtained separately and AtV oxygen content were measured.\n2.2.3 Six canines were randomly divided into model control group (injecting physiological saline 1 mL/1 kg by femoral vein), positive control group (Diltiazem Hydrochloride solution 0.5 mg/kg) and MPD treated group (20 mg/kg by femoral vein), two canines per group. The data of N-ST, Σ-ST, the blood oxygen content of vena coronaria sinus and artery, and the scope of miocardial infarction of pro-administration were collected after administration at once, and 5, 15, 30, 60, 120, 180 minutes after administration.\nEpicardial electrogram: recording the change of N-ST and Σ-ST.\n(§2) Determining the scope of miocardial infarction (N-BT staining method): quickly taking out the heart from the executed animal, then washing by physiologic saline and dewatering with filter paper, the heart was cut into 4 pieces uniformly from apex of heart to ligating thread, then the pieces were put into N-BT staining solution, keeping in common temperature, avoiding light in 2 minutes. Then measuring the size of each slice, and the size of miocardial infarction (non-staining zone with N-BT) by colorful multimedia patho-image analytical system, total area of ventricular muscle, total area of infarction of ventricular muscle, and the ratio of miocardial infarction size relative to the size of ventricles were measured respectively."}, "Rat model of AMI [2]": {"tested_on": "Rat model of AMI", "assay": "Rat model of AMI by ligating of coronary artery, MPD, PPD and MPD+PPD mixture (Example 5)", "assay_type": "in vivo, Wistar rats", "conditions": "40 mg/kg by pouring to stomach, one time after ligating, 24 h, relative to size of ventricles", "procedure": "(§3) Methods: Rat model of AMI was established by ligating of coronary artery.\n(§4) Rat was anaesthetized by 3.5% chloral hydrate (10 mL/kg, by weight), then linking to electric-respirator, scraping off the fur of chest, opening thoracic cavity, exposing cardiac pericardium and then ligating the root of the left anterior descending of coronary artery (LADCA).\n33 rats were randomly divided into model control group (physiological saline 5 mL/kg by pouring down throat), MPD treated group (40 mg/5 mL/kg, by pouring to stomach), PPD treated group (40 mg/5 mL/kg, by pouring to stomach) and MPD+PPD treated group (40 mg/5 mL/kg, by pouring to stomach). […]\nas §2, with “5” for “4”"}, "Rat model of AMI [3]": {"tested_on": "Rat model of AMI", "assay": "Rat model of AMI by ligating of coronary artery, PPD and MPD by pouring to stomach (Example 4)", "assay_type": "in vivo, Wistar rats", "conditions": "for Death rate in operation / Infarction size/whole heart size (%): experiment 2 (repeated), 40 mg/kg by pouring to stomach", "procedure": "as §3, §4\n(§5) 12 rats were randomly divided into model control group (physiological saline 5 mL/kg by pouring down throat) and PPD treated group (40 mg/5 mL/kg, by pouring to stomach), 6 rats per group. Rats were administrated one time after ligating, then be executed 24 hours later.\nas §5, with “24” for “12”, “to stomach), MPD treated group (40 mg/5 mL/kg, by pouring to stomach)” for “down throat)”, “stomach).” for “stomach), 6 rats per group.”\nas §2, with “5” for “4”"}, "[4]": {"tested_on": "acute miocardial infarction caused by ligation of coronary artery", "assay": "Acute miocardial infarction by coronary artery ligation in rats, MPD injection (Example 3)", "assay_type": "in vivo, Wistar rats", "conditions": "rat, n=10", "procedure": "as §1, §4\n2.2.1 Preliminary experiment: twenty rats were randomly divided into model control group (injecting physiological saline 3 mL/kg by vena caudalis) and MPD treated group (40 mg/kg, i.v), ten rats per group.\n2.2.2 Repeated experiment: fifty rats were randomly divided into model control group (injecting physiological saline 3 ml/kg by vena caudalis), Di'ao Xinxuekang group (administering 40 mg/kg by intragastric administration), MPD dose-intensive group (80 mg/kg by vena caudalis injection), MPD moderate dose group (40 mg/kg) and MPD low-dose group (20 mg/kg), ten rats per group. Rats were treated after 30 minutes of preparing model successfully, and were executed after 24 hours, and observing the results.\nas §2"}, "[5]": {"conditions": "20 mg/kg by femoral vein, 20 mg/kg"}},
  "note": "Counter-ions that a name gives are not always drawn.",
  "data": [
    {"smiles": "COc1ccc([C@@H]2Sc3ccccc3N(CCN(C)C)C(=O)[C@@H]2OC(C)=O)cc1", "note": "[Diltiazem Hydrochloride, reference compound]", "values": [
      {"measurement": "Infarction size/heart size (%)", "setting": "[1]; 0.5 mg/kg", "value": "1.81 ± 0.79", "unit": "%"},
      {"measurement": "Infarction size/ventricles size (%)", "setting": "[1]; 0.5 mg/kg", "value": "4.36 ± 1.15", "unit": "%"}
    ]},
    {"smiles": "CO[C@]1(CC[C@@H](C)CO[C@@H]2O[C@H](CO)[C@@H](O)[C@H](O)[C@H]2O)O[C@H]2C[C@H]3[C@@H]4CC=C5C[C@@H](O[C@@H]6O[C@H](CO)[C@@H](O[C@@H]7O[C@@H](C)[C@H](O)[C@@H](O)[C@H]7O)[C@H](O)[C@H]6O[C@@H]6O[C@@H](C)[C@H](O)[C@@H](O)[C@H]6O)CC[C@]5(C)[C@H]4CC[C@]3(C)[C@H]2[C@@H]1C", "note": "[MPD, Methylprotodioscin]", "values": [
      {"measurement": "infarct size (IS) (%)", "setting": "Rat model of AMI [2]", "value": "36.24±3.74", "unit": "%"},
      {"measurement": "Death rate in operation", "setting": "Rat model of AMI [3]", "value": "0% (0/8)"},
      {"measurement": "Infarction size/whole heart size (%)", "setting": "Rat model of AMI [3]; one time after ligating, 24 h", "value": "33.71 ± 6.73", "unit": "%"},
      {"measurement": "miocardial infarction size/ventricular size (%)", "setting": "[4]; preliminary experiment, 40 mg/kg i.v., X ± SD, 40 mg/kg", "value": "33.4±8.09", "unit": "%"},
      {"measurement": "miocardial infarction size/ventricular size (%)", "setting": "[4]; repeated experiment, dose-intensive 80 mg/kg by vena caudalis injection, 24 h", "value": "30.62±9.46", "unit": "%"},
      {"measurement": "miocardial infarction size/ventricular size (%)", "setting": "[4]; repeated experiment, low-dose 20 mg/kg by vena caudalis injection, 24 h, 20 mg/kg", "value": "37.89±8.41", "unit": "%"},
      {"measurement": "miocardial infarction size/ventricular size (%)", "setting": "[4]; repeated experiment, moderate dose 40 mg/kg by vena caudalis injection, 24 h, 40 mg/kg", "value": "32.32±6.92", "unit": "%"},
      {"measurement": "N-ST (epicardial electrogram) comparing with control group", "setting": "[1]; 20 mg/kg by femoral vein, FIG. 4", "value": "no significant difference"},
      {"measurement": "flow of aeteria coronaria comparing with control group", "setting": "[1]; 20 mg/kg by femoral vein, FIG. 6", "value": "no significant difference"},
      {"measurement": "miocardial consumption of oxygen (MCO) comparing with control group", "setting": "[1]; 20 mg/kg by femoral vein, FIG. 7", "value": "no significant difference"},
      {"measurement": "Infarction size/heart size (%)", "setting": "[1]; [5]", "value": "2.74±0.33", "unit": "%"},
      {"measurement": "Infarction size/ventricles size (%)", "setting": "[1]; [5]", "value": "7.30±0.97", "unit": "%"}
    ]},
    {"smiles": "CC1=C(CC[C@@H](C)CO[C@@H]2O[C@H](CO)[C@@H](O)[C@H](O)[C@H]2O)O[C@H]2C[C@H]3[C@@H]4CC=C5C[C@@H](O[C@@H]6O[C@H](CO)[C@@H](O[C@@H]7O[C@@H](C)[C@H](O)[C@@H](O)[C@H]7O)[C@H](O)[C@H]6O[C@@H]6O[C@@H](C)[C@H](O)[C@@H](O)[C@H]6O)CC[C@]5(C)[C@H]4CC[C@]3(C)[C@@H]12", "note": "[PPD, Pseudoprotodioscin]", "values": [
      {"measurement": "infarct size (IS) (%)", "setting": "Rat model of AMI [2]", "value": "36.31±1.90", "unit": "%"},
      {"measurement": "miocardial infarction size/ventricular size (%)", "setting": "Rat model of AMI [3]; experiment 1, 40 mg/kg by pouring to stomach, one time after ligating, 24 h, n=6, 40 mg/kg", "value": "36.25±7.20", "unit": "%"},
      {"measurement": "Death rate in operation", "setting": "Rat model of AMI [3]", "value": "14.3% (1/7)"},
      {"measurement": "Infarction size/whole heart size (%)", "setting": "Rat model of AMI [3]; one time after ligating, 24 h", "value": "36.31 ± 1.90", "unit": "%"}
    ]}
  ]
}
